Measurements as given in US5173494A, “Specific inhibition of angiotensin-II binding to angiotensin-II receptor subtype-2” (E. I. du Pont de Nemours and Company, priority 1991, dated 1992).

How the values were obtained:
[1] = system: renin-induced disruption of passive avoidance retention; test: Renin-disrupted passive avoidance retention; format: in vivo, male Sprague-Dawley rats; details: rats; for prevention of renin-induced amnesia: co-administered with renin, IVT
Protocol: Experimentally naive male Sprague-Dawley rats […] (Charles River Breeding Laboratories, Kingston, N.Y.), weighing between 175 to 200 gm were used. The animals were housed four per cage (45.0 L×20.0 H×26.0 W cm) with free access to food and water. They were maintained on a 12 h light/dark cycle (lights on 0600 h) and at a room temperature of 22±1° C. with relative humidity of 50±10%.
The experimental sessions were conducted in a two-compartment passive avoidance box. One compartment, made of clear plastic with a perforated clear plastic floor, measured 21(L)×24.5(H)×17(W) cm and was illuminated with a 60 watt incandescent light bulb placed 36 cm above the floor. The other compartment, made of black plastic, measured 30.5(L)×20.3(H)×[…] with a floor made of 4 mm stainless steel rods spaced 1.2 cm apart. A grid floor shocker (Coulbourn Instruments) was connected to the steel rods and provided scrambled footshock. The two compartments were separated by a solenoid-operated slide door (Lafayette Instrument Co., Lafayette, Ind.). An electronic counter (Coulbourn Instruments), triggered by the opening or closing of the slide door, recorded acquisition and retention latencies (latencies were defined as the time it took an animal to enter the dark compartment).
Passive avoidance training began by placing the rat into the clear compartment of the two-compartment passive avoidance box. Following a 10 sec delay, the slide door to the dark compartment was raised. Once the rat moved completely into the dark compartment (all four paws on the shock grid floor) the slide door was lowered, and after a 10 sec delay, a 1.0 mA shock was applied to the grid floor for three sec. A second three sec shock was delivered after an additional 10 sec delay. The rats were immediately removed from the dark compartment and returned to their home cage. A retention test was given 24 h later. It proceeded in the same manner as the training session except that no shock was applied to the grid floor when the rats were provided access to the dark compartment for a maximum of 300 sec.
All drugs were administered IVT 60 minutes prior to acquisition training in a volume of 5 μl. Doses are expressed as the free base weight of each compound.

[2] = system: mouse habituation (light to dark compartment latency); details: cited from earlier work
uphill avoidance = details: mice, acute, 30 mg/kg PO; cited from earlier work
[3] = system: scopolamine-induced PA amnesia; details: three times per day at 1, 3 and 10 mg/kg PO; cited from earlier work
[4] = system: scopolamine-induced impairment of eight arm radial maze performance; details: 3 mg/kg IP; cited from earlier work
[5] = system: ACh in the striatum and hypothalamus; details: acute or repeated administration; cited from earlier work
[6] = system: memory of previously learned tasks; details: in vivo; cited from earlier work
[7] = system: renin-induced amnesia in a PA task; test: PA task after IVT renin (own laboratory); format: in vivo
[8] = system: renin-induced avoidance disruption; details: cited from earlier work
[9] = system: light/dark habituation performance; details: subchronic treatment; cited from earlier work
[10] = system: retention of a passive avoidance (PA) response; details: rats, dorsal neostriatum injection; cited from earlier work
[11] = system: potassium-stimulated release of ACh in entorhinal cortex; details: in vitro, entorhinal cortex from rat brain; cited from earlier work
[12] = system: AII in cerebrospinal fluid (CSF); details: renin IVT; increased from 40; cited from earlier work

With `CCCc1nc(C(F)(F)F)c(C(=O)O)n1Cc1ccc(-c2ccccc2-c2nn[nH]n2)cc1` [Compound C, 2-n-propyl-1-[(2'-(lH-tetrazol-5-yl)biphenyl-4-yl)methyl]-4-trifluoromethylimidazole-5-carboxylic acid] the “prevention of renin-induced amnesia” value [1] was “protected against amnesia”.

With `CCCc1nc(C(F)(F)F)c(CO)n1Cc1ccc(-c2ccccc2-c2nnn[nH]2)cc1` [Compound D, 2-n-propyl-5-hydroxymethyl-1-[(2'-(1H-tetrazol-5-yl)biphenyl-4-yl)methyl]-4-trifluoromethylimidazole] the “prevention of renin-induced amnesia” value [1] was “protected against amnesia”.

In the case of `Cc1cc(Cn2cnc3c2CC(C(=O)O)N(C(=O)C(c2ccccc2)c2ccccc2)C3)ccc1N` (stereo not shown) [EXP655, 1-(4-amino-3-methylphenyl)methyl-5-diphenylacetyl-4,5,6,7-tetrahydro-1H-imidazo[4,5-c]pyridine-6-carboxylic acid], the “prevention of renin-induced amnesia” value [1] is listed as “less effective in preventing the amnesia”, the “initial latency to move from light to dark compartment” value ([2]; 10.0 ng kg^-1 i.p. b.d., days 2 and 3, vs vehicle) is listed as “decrease in the initial latency to move from the light to dark compartment” and the “scopolamine-induced impairment in mice treated with EXP655” value ([2]; EXP655 10.0 ng kg^-1 i.p., scopolamine 0.25 mg kg^-1 i.p., day 6) is listed as “not detected”.

For `CCOC(=O)C(CCc1ccccc1)NC(C)C(=O)N1CC2(CC3CCC2CC3)CC1C(=O)O` (stereo not shown) [Hoe 288], the “performance during retention testing, uphill avoidance” value (uphill avoidance) is given as “improved performance during retention testing”, the “effect on scopolamine-induced PA amnesia” value [3] is given as “partially reversed the amnesia” and the “effect of muscarinic receptor blockade on performance” value [4] is given as “partially antagonized the effects of muscarinic receptor blockade on performance”. For the same molecule, the “ACh in the striatum and hypothalamus” value [5] was “significant decrease in ACh”.

For `NCCCC[C@H](OP(=O)(O)CCCCc1ccccc1)C(=O)N1CCC[C@H]1C(=O)O` [SQ 29852], the “effect on anticholinergic effect on performance” value [6] is given as “ameliorate, at least in part, an anticholinergic effect on performance” and the “effect on memory of previously learned tasks” value [6] is given as “protective effects on memory of previously learned tasks”.

For `C[C@H](CS)C(=O)N1CCC[C@H]1C(=O)O` [captopril], the “prevention of renin-induced amnesia in a PA task” value ([7]; IVT administration) is given as “prevented”, the “prevention of renin-induced avoidance disruption” value ([8]; IVT, prior to the renin injection) is given as “prevented the renin-induced avoidance disruption” and the “rate of acquisition of light/dark habituation performance” value [9] is given as “increased the rate of acquisition”.

For `CN1[C@@H]2C[C@@H](OC(=O)[C@H](CO)c3ccccc3)C[C@H]1[C@@H]1O[C@@H]12` [scopolamine], the “performance following scopolamine in vehicle-treated mice (initial latency)” value ([2]; scopolamine 0.25 mg kg^-1 i.p., day 6) is listed as “increase in the initial latency”.

For `NC(=O)[C@@H]1CCCN1C(=O)[C@H](Cc1cnc[nH]1)NC(=O)[C@@H]1CCC(=O)N1` [thyrotropin releasing hormone], the “effect on retention of a PA response” value [10] is given as “had no effect”.

For “AII: Angiotensin-II (AII), a circulating hormone, now thought to act as a neuropeptide in the central nervous system (DRVYIHPF; Angiotensin-2; UniProt P01019 25-32, looked up)”, the “effect on retention of a PA response” value [10] is given as “disruption in retention of a PA response”, the “basal levels of ACh release” value [11] is given as “without effects on basal levels” and the “potassium-stimulated release of ACh” value [11] is given as “reduced potassium-stimulated release of ACh”.

For “[1-sarcosine, 8-threonine]angiotensin-II”, the “antagonism of AII effect on ACh release” value [11] is listed as “antagonized”.

In the case of lysine-8-vasopressin, the “effect on retention of a PA response” value [10] is given as “had no effect”.

B1: renin: Renin (Sigma Chemicals), a stimulator of endogenous AII biosynthesis (protein, UniProt P00797 67-406, looked up)
Renin: LTLGNTTSSVILTNYMDTQYYGEIGIGTPPQTFKVVFDTGSSNVWVPSSKCSRLYTACVYHKLFDASDSSSYKHNGTELTLRYSTGTVSGFLSQDIITVGGITVTQMFGEVTEMPALPFMLAEFDGVVGMGFIEQAIGRVTPIFDNIISQGVLKEDVFSFYYNRDSENSQSLGGQIVLGGSDPQHYEGNFHYINLIKTGVWQIQMKGVSVGSSTLLCEDGCLALVDTGASYISGSTSSIEKLMEALGAKKRLFDYVVKCNEGPTLPDISFHLGGKEYTLTSADYVFQESYSSKKLCTLAIHAMDIPPPTGPTWALGATFIRKFYTEFDRRNNRIGFALAR
For B1, the “memory deficit produced by renin” value ([1]; renin injected IVT) is listed as “produces memory deficit in rats”, the “amnesia in a PA task” value ([7]; renin administered IVT) is listed as “produces a dose-related amnesia” and the “AII in cerebrospinal fluid after renin” value [12] is listed as “about 5000 fmol per mL”. The “effect on avoidance learning” value ([8]; renin into lateral ventricle (IVT)) was “disruption of avoidance learning”.
